Where two headings read alike, the source gives them in different places.
Tests used:
CCRF-CEM cells = assay: Cell Culture Study I: MTX cytotoxicity, alamarBlue; assay type: cell-based, human; conditions: 72 hours
Experimental: In this study, CCRF-CEM cells purchased from ATCC were cultured and then 12 tubes containing approximately 10^6 cells each treated for 72 hours with media (Group1), MTX 0.03 μM (Group2), MTX+Leucovorin 1 μM (Group3), MTX+Leucovorin 10 μM (Group4), MTX+Leucovorin 100 μM (Group5), MTX+TK-112690 1 μM (Group6), MTX+TK-112690 10 μM (Group7) and MTX+TK-112690 100 μM (Group8). […] Viability was measured as percent reduction of alamarBlue absorbance.
The tumor cell line CCR-CEM (human T-cell acute lymphoblastic leukemia) is obtained from American Type Culture Collection (CRL-1593.2) and cultured in accordance with the product information sheet with the following exceptions: 55.3 cm^2 Petri dishes are used instead of 75 cm^2 culture flasks, and 1% penicillin-streptomycin solution (HyClone SV30010) and 1% GlutaMAX™ (Gibco 35050) are added to the culture medium.
TK-112690, the representative 2,2′-anhydropyrimidine test article, is dissolved in 40% DMSO, sterile filtered then diluted with sterile distilled water to obtain initial working solutions of 10, 100 and 1000 μM. In testing, a 100 fold dilution is made in culture media to give final assay concentrations of 0.1, 1.0 and 10.0 μM. MTX (SAFC Biosciences M8407) is dissolved in sterile distilled water and 5 N NaOH then sterile filtered. The final pH of the stock solution is 7.8 and working solutions are made with sterile distilled water for final assay concentrations of 30, 3.0, 0.3, 0.03 and 0.003 μM. Leucovorin (Sigma F-7878) is dissolved in sterile distilled water, sterile filtered and diluted with sterile distilled water for final assay concentrations of 0.1, 1.0 and 10.0 μM.
Aliquots of 100 μL of cell suspension are plated in 96 well microtiter plates (Corning costar 3595) and placed in an atmosphere of 5% CO2 at 37° C. (Fisher Scientific Isotemp 3500 CO2 Incubator). After 24 hours, 100 μL of growth medium [RPMI-1640 w/L-glutamine (Cambrex 12-702Q) fortified with sodium pyruvate (HyClone SH30239.01), fetal bovine serum (SAFC Biosciences 12107C) and HEPES buffer (Gibco 15630)] and 2 μL of test solution or vehicle are added respectively per well and the plates incubated for an additional 72 hour incubation. MTX is evaluated at concentrations of 0.003, 0.03, 0.30 and 3.0 μM alone or in combination with either a 2,2′-anhydropyrimidine test article or Leucovorin at concentrations of 0.1, 1.0, 10.0 μM. At the end of incubation, the efficacy of anti-cell proliferation is determined by optical absorbance at λ=570 and 600 nm [Spectramax 250 (Molecular Devices)] in accordance with the standard alamarBlue™ (Biosource) protocol.
Group 1 is the cell control (media treated). Group 2 corresponds to cells treated with 0.03 μM MTX. Group 3 are cells treated with 1.0 μM Leucovorin. Group 4 are cells treated with 0.1 μM Leucovorin. Group 5 are cells treated with 10 μM TK-112690. Group 6 are cells treated with MTX+10 μM TK-112690. Group 7 are cells treated with MTX+1.0 μM TK-112690. Group 8 MTX+0.1 μM TK-112690.

[1] = target: mouse small intestinal UPase enzyme (Mus musculus, UniProt P52624); assay: UPase inhibition in mouse small intestinal tissue homogenate (HPLC of uracil); assay type: biochemical
Experimental: A range of TK-112690 doses were studied for the their ability to prevent metabolic breakdown of uridine through the in vitro inhibition of mouse and human small intestinal UPase enzyme. UPase activity was determined by HPLC analysis using UV detection of uracil concentration (UPase catabolizes uridine into uracil and ribose-1-phosphate). The UPase enzyme material was prepared from homogenized mouse and human being small intestinal tissue. TK-112690 was dissolved in water (50 mg/ml) and analyzed for UPase inhibition in aqueous solution containing 5 mM uridine, 0.01 M Tris, 0.01 M phosphate, 1 mM EDTA, and 1 mM DTT. Reactions were performed at 37° C. at pH of 7.3.
The aim of this study was to evaluate TK-112690 […] as an inhibitor of uridine phosphorylase (UPase) enzyme activity. The range of TK-112690 doses studied for ability to prevent metabolic breakdown of uridine, through the in vitro inhibition of mouse and human small intestinal UPase enzyme, was 0, 0.1, 0.5, 1, 5, 10, 50, 100, 500, 1000, 5000 and 10000 μM). Detection of UPase activity was determined by HPLC analysis using UV detection of uracil concentration (UPase catabolizes uridine into uracil and ribose-1-phosphate).
The UPase enzyme material was prepared from homogenized mouse and human being small intestinal tissue. TK-112690 was dissolved in water (50 mg/ml) and analyzed for UPase inhibition in aqueous solution containing 5 mM uridine, 0.01 M Tris, 0.01 M phosphate, 1 mM EDTA, and 1 mM DTT. Reactions were performed at 37° C. at pH of 7.3.
TK-11260 inhibition of mouse and human UPase was analyzed by reverse phase HPLC using UV detection. HPLC analysis was performed at ambient temperature with a Water 2695 Alliance system equipped with a C18 ECONOSIL 5 U ALLtech column. 20 μl of UPase reaction samples were auto-injected onto column. Mobile phase consisted of water eluting for first 2.5 ml and acetonitrile gradient to 100% in 12.5 ml (flow rate 0.5 ml/min). The outlet fluent was monitored by UV absorption in the range of 240-320 nm. UPase enzymatic activity was based on the AUC of the uracil peaks.

Drosophila melanogaster = assay: Fly Study I: protection from MTX-induced lethality; assay type: in vivo; conditions: with MTX 0.4 mg; TK-112690 0.005 to 0.1 mg
Experimental: In this study, Drosophila melanogaster eggs (50 eggs per vial) were treated with either 0.005 mg TK-112690+0.4 mg MTX (Group 1), 0.01 mg TK-112690+0.4 mg MTX (Group 2), 0.04 mg TK-112690+0.4 mg MTX (Group 3), 0.1 mg TK-112690+0.4 mg MTX (Group 4), 0.4 mg MTX alone (Group 5) or saline blank (Group 6). Two vials of eggs for each dose group were evaluated for viability (viable flies plus pupae).
The efficacy of cancer chemotherapy can be improved if agents are available to reduce the adverse events associated with treatment with cytotoxic agents. To this end, Drosophila melanogaster (commonly know as the fruit fly) is an ideal organism to screen chemical compounds for such side-effect-reducing agents. This study is aimed at finding a dose of a 2,2′-anhydropyrimidine test article that protects against MTX-induced lethality in insects.
Increasing amounts of a 2,2′-anhydropyrimidine test article (typically 0.03 to 0.1 mg) are mixed in an aqueous solution with 0.3 (or 0.4) mg MTX. Four milliliters (mL) of a 2,2′-anhydropyrimidine test article+MTX solutions are added to an appropriate amount of instant fly medium. Fruit fly eggs are added to a 2,2′-anhydropyrimidine test article+MTX treated medium and incubated for up to 31 days. After the 31 day incubation, each assay is scored by the number of mature fly and pupae per vial.
The assays are set up in clear sterile polystyrene narrow diameter vials from Applied Scientific (Hampton, N.H.). Vials are stored in trays and incubated in a darkened 25° C. incubator.
Reagents and materials used are: 50 mg/mL MTX in H2O (pH 8), 20 mg/mL of the 2,2′-anhydropyrimidine test article in H2O, water, sterile polystyrene narrow diameter vials from Applied Scientific, Instant Drosophila Food Medium, Oregon-R Drosophila melanogaster, 25° C. incubator, and 15 mL polystyrene conical tubes
Each assay is performed in a separate fly vial. […] Pre-measured amounts of instant drosophila medium are added to each assay to achieve optimal hydration level. […] Assays are scored by the number of dead pupae or adult flies per vial.

[2] = Table 3, murine UPase, test method of Experiment IX, read-out: UPase IC50

Sequence of mouse small intestinal UPase enzyme (P52624 whole entry, looked up): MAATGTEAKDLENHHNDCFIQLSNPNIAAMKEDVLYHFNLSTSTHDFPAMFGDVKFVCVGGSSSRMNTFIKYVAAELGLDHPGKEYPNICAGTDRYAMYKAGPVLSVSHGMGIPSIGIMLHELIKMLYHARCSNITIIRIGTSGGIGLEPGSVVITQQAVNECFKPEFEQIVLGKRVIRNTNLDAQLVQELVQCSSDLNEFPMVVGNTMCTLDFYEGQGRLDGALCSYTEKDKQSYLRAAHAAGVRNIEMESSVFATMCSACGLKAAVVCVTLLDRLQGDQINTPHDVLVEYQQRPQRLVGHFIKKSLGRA

SMILES	IC50 [1, 2] [µM]	other results
Nc1nc2c(c(=O)[nH]1)N(C=O)C(CNc1ccc(C(=O)N[C@@H](CCC(=O)O)C(=O)O)cc1)CN2 (some centres unmarked) [Leucovorin]	–	effect on MTX cytotoxicity (viability, alamarBlue) (CCRF-CEM cells; combined with MTX 0.03 μM): statistically different than Group 2; viability, agent alone vs control (CCRF-CEM cells; without MTX): not statistically different than control
O=c1nc2n(cc1NCc1ccccc1)[C@@H]1O[C@H](CO)[C@@H](O)[C@@H]1O2 [TK-000006]	< 100	–
CCOCc1cn2c(nc1=O)O[C@H]1[C@H](O)[C@@H](CO)O[C@H]12 [TK-000007]	< 100	–
O=c1nc2n(cc1COCc1ccccc1)[C@@H]1O[C@H](CO)[C@@H](O)[C@@H]1O2 [TK-000008]	< 100	–
Cc1ccc(SCc2cn3c(nc2=O)O[C@H]2C(O)[C@@H](CO)O[C@H]23)cc1 (some centres unmarked) [TK-000016]	–	IC50 ([1]; 5 mM uridine, 37° C., pH 7.3, read-out: IC50, mouse small intestinal (murine) UPase): < 100 µM

Now from value to molecule, other results behind:

IC50 [1, 2] [µM]	SMILES	other results
< 100	COCc1cn2c(nc1=O)O[C@H]1[C@H](O)[C@@H](CO)O[C@H]12 [TK-000009]	protection against MTX-induced lethality in the Fly model (Drosophila melanogaster): active
> 100	CC(=N)OCc1cn2c(nc1=O)O[C@H]1[C@H](O)[C@@H](CO)O[C@H]12 [TK-000010]	–
> 100	Cc1cn2c(nc1=O)O[C@H]1[C@H](O)[C@@H](CN=[N+]=[N-])O[C@H]12 [TK-000011]	–
> 100	Cc1cn2c(nc1=O)O[C@H]1C(O)[C@@H](CF)O[C@H]12 (some centres unmarked) [TK-000015]	–

From patent publication USRE48253E1, “Methotrexate adjuvants to reduce toxicity and methods for using the same” (Tosk, Inc., priority 2008, dated 2020)
